# Reference: patent publication US20060014643A1, “Combinations of aryloxyphenoxypropionates and safeners and their use for increasing weed control” (BAYER CROPSCIENCE GMBH, priority 2002, published 2006)
# Key:
# Type in all cases: in vivo
# Setaria lutescens = test: Post-emergence weed control in spring wheat (field trial); settings: visual scoring 4 weeks after treatment vs untreated, rate g a.i./ha: (A1) 112, (A3) 1680, (B1) 28, mixtures 112 + 28 and 1680 + 28, 300 l water/ha
# Procedure: (§1) Spring wheat was grown outdoors on plots under natural outdoor conditions, and seeds of typical harmful plants were laid out. Treatment with a mixture of a (hetero)aryloxyphenoxypropionate herbicide and the safener mefenpyr-diethyl using standard formulations of the active ingredients at an application rate of 300 l water per hectare was carried out after the harmful plants had emerged and the spring wheat was in the growth stage between 3 and 5 leaves for the plants. The effect of the composition was assessed 4 weeks after treatment by scoring visually in comparison with untreated controls.
# [1] = system: Triticum aestivum (spring wheat); test: Phytotoxicity (crop damage) to spring wheat (field trial); settings: spring wheat at 3-5 leaves, visual scoring 4 weeks after treatment, rate g a.i./ha: (A1) 112, (A3) 1680, (B1) 28, mixtures 112 + 28 and 1680 + 28
# Procedure: as §1
# Alopecurus myosuroides = test: Post-emergence weed control in winter wheat (field trial); settings: visual scoring 112 days after treatment vs untreated, rate g a.i./ha: (A5) 37.3, (B1) 10, (A5)+(B1) 37.3 + 10, 300 l water/ha
# Procedure: (§2) Winter wheat was grown outdoors on plots under natural outdoor conditions, and seeds of typical harmful plants were laid out. […] The effect of the composition was assessed 112 days after treatment by scoring visually in comparison with untreated controls.
# [2] = system: Triticum aestivum (winter wheat); test: Phytotoxicity (crop damage) to winter wheat (field trial); settings: winter wheat at 3-5 leaves, visual scoring 112 days after treatment, rate g a.i./ha: (A5) 37.3, (B1) 10, (A5)+(B1) 37.3 + 10
# Procedure: as §2
SMILES,Weed control (%) of SETLU (Setaria lutescens) [%],Phytotox (%) of TRZAS [1] [%],Weed control (%) of ALOMY (Alopecurus myosuroides) [%],Phytotox (%) of TRZAW [2] [%]
"CC(Oc1ccc(Oc2ccc(Cl)cc2Cl)cc1)C(=O)O (racemic) [(A3), (RS)-2-[4-(2,4-dichlorophenoxy)phenoxy]propionic acid]",45,12,–,–
"C#CCOC(=O)[C@@H](C)Oc1ccc(Oc2ncc(Cl)cc2F)cc1 [(A1), prop-2-ynyl (R)-2-[4-(5-chloro-3-fluoropyridin-2-yloxy)phenoxy]propionate]",68,20,–,–
"CCOC(=O)[C@@H](C)Oc1ccc(Oc2nc3ccc(Cl)cc3o2)cc1 [(A5), ethyl (R)-2-[4-(6-chloro-1,3-benzoxazol-2-yloxy)phenoxy]propionate]",–,–,69,10
"CCOC(=O)C1=NN(c2ccc(Cl)cc2Cl)C(C)(C(=O)OCC)C1 (stereo not shown) [(B1), ethyl 1-(2,4-dichlorophenyl)-5-(ethoxycarbonyl)-5-methyl-2-pyrazoline-3-carboxylate]",0,0,0,0
